Test results reported in patent US20240025862A1, “SUBSTITUTED N-PHENYLURACILS AND SALTS THEREOF, AND USE THEREOF AS HERBICIDAL ACTIVE SUBSTANCES” (Bayer Aktiengesellschaft, priority 2020, published 2024).

How the values were obtained:
Type in all cases: in vivo
[1] = tested on: Echinochloa crus-galli (ECHCG); assay: Post-emergence herbicidal action, greenhouse pot test (also comparative test C)
Method in brief: (§1)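 Green parts of one-leaf-stage plants are sprayed at 600 l/ha with formulated compound plus 0.5% additive, then kept under optimum greenhouse conditions for about 3 weeks. Damage is scored visually, where 100% means dead plants and 0% means no difference from controls.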

[2] = tested on: Setaria viridis (SETVI); assay: as above
Method in brief: as §1

[3] = tested on: Matricaria inodora (MATIN); assay: as above
Method in brief: as §1

[4] = tested on: Alopecurus myosuroides (ALOMY); assay: as above; conditions: rated visually after about 3 weeks vs untreated controls, 100% = plants have died
Method in brief: as §1

[5] = tested on: Oryza sativa (ORYSA); assay: Post-emergence crop plant compatibility, greenhouse pot test (also comparative test C); conditions: for Post-emergence action against ORYSA (crop plant compatibility): vs untreated controls
Method in brief: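 Visual damage versus untreated plants (0% = like control, 100% = plants died) was scored about 3 weeks after a post-emergence spray in greenhouse pots. Treatment: one-leaf stage, WP or EC in water at 600 l/ha with 0.5% additive; a/b/c mark different dosages on the same crop.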

[6] = tested on: Veronica persica (VERPE); assay: Post-emergence herbicidal action, greenhouse pot test
Method in brief: (§2)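 Activity was scored by eye about 3 weeks after treatment against untreated plants, where 100% means dead plants and 0% means no difference. Plants at the one-leaf stage received a foliar spray of WP or EC formulations in water plus 0.5% additive (600 l/ha, up to 20 g/ha). Plants were grown in sandy loam pots in a greenhouse for 2–3 weeks before spraying.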

[7] = tested on: Viola tricolor (VIOTR); assay: as above
Method in brief: as §2

[8] = tested on: Polygonum convolvulus (POLCO); assay: as above
Method in brief: as §2

[9] = tested on: Pharbitis purpurea (PHBPU); assay: as above
Method in brief: as §2

[10] = tested on: Abutilon theophrasti (ABUTH); assay: as above; conditions: rated visually after about 3 weeks vs untreated controls, 100% = plants have died
Method in brief: as §2

[11] = tested on: Stellaria media (STEME); assay: as above
Method in brief: as §2

[12] = tested on: Amaranthus retroflexus (AMARE); assay: as above; conditions: rated visually after about 3 weeks vs untreated controls, 100% = plants have died
Method in brief: as §2

[13] = tested on: Triticum aestivum (TRZAS); assay: Post-emergence crop plant compatibility, greenhouse pot test; conditions: vs untreated controls
Method in brief: (§3)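 Compatibility was scored as visual % effect against untreated controls about 3 weeks after spraying green plant parts at the one-leaf stage. Formulations (WP/EC) were applied in aqueous form with 0.5% additive, 600 l/ha, to greenhouse-grown pot plants.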

[14] = tested on: Zea mays (ZEAMX); assay: as above; conditions: vs untreated controls
Method in brief: as §3

[15] = tested on: Glycine max (GLXMA); assay: as above
Method in brief: as §3

[16] = tested on: Avena fatua (AVEFA); assay: Post-emergence herbicidal action, greenhouse pot test; conditions: rated visually after about 3 weeks vs untreated controls, 100% = plants have died
Method in brief: as §2

## COCCOC(=O)C(C)Oc1ccccc1Sc1cc(-n2c(=O)cc(C(F)(F)F)n(C)c2=O)c(F)cc1Cl (racemic) [I.2-1, 2-Methoxyethyl (2RS)-2-[2-({2-chloro-4-fluoro-5-[3-methyl-2,6-dioxo-4-(trifluoromethyl)-3,6-dihydropyrimidin-1(2H)-yl]phenyl}sulfanyl)phenoxy]propanoate]
[1]; Echinochloa crus-galli, 504 h, dosage 20 g/ha, read-out: Post-emergence action against ECHCG in %
  pest or weed control at 20 g/ha: 100%
[2]; Setaria viridis, 504 h, 20 g/ha, read-out: Post-emergence action against SETVI
  pest or weed control at 20 g/ha: 100%
[2]; Setaria viridis, 504 h, dosage 1.25 g/ha, read-out: Post-emergence action against SETVI in %
  pest or weed control at 1.25 g/ha: 100%
[2]; Setaria viridis, 504 h, dosage 5 g/ha, read-out: Post-emergence action against SETVI in %
  pest or weed control at 5 g/ha: 100%
[3]; Tripleurospermum inodorum, 504 h, dosage 5 g/ha, read-out: Post-emergence action against MATIN in %
  pest or weed control at 5 g/ha: 80%
[3]; Tripleurospermum inodorum, 504 h, dosage 20 g/ha, read-out: Post-emergence action against MATIN in %
  pest or weed control at 20 g/ha: 100%
[4]; Alopecurus myosuroides, 504 h, 20 g/ha, read-out: Post-emergence action at 20 g/ha against ALOMY in %
  pest or weed control at 20 g/ha: 80%
[5]; 1.25 g/ha
  Post-emergence action against ORYSA (crop plant compatibility): 10%
[5]; 5 g/ha
  Post-emergence action against ORYSA (crop plant compatibility): 10%
[6]; Veronica persica, 504 h, 1.25 g/ha, read-out: Post-emergence action against VERPE
  pest or weed control at 1.25 g/ha: 90%
[6]; Veronica persica, 504 h, 5 g/ha, read-out: Post-emergence action against VERPE
  pest or weed control at 5 g/ha: 100%
[6]; Veronica persica, 504 h, 20 g/ha, read-out: Post-emergence action against VERPE
  pest or weed control at 20 g/ha: 100%
[7]; Viola tricolor, 504 h, 1.25 g/ha, read-out: Post-emergence action against VIOTR
  pest or weed control at 1.25 g/ha: 100%
[7]; Viola tricolor, 504 h, 5 g/ha, read-out: Post-emergence action against VIOTR
  pest or weed control at 5 g/ha: 100%
[7]; Viola tricolor, 504 h, 20 g/ha, read-out: Post-emergence action against VIOTR
  pest or weed control at 20 g/ha: 100%
[8]; Fallopia convolvulus, 504 h, dosage 5 g/ha, read-out: Post-emergence action against POLCO in %
  pest or weed control at 5 g/ha: 80%
[8]; Fallopia convolvulus, 504 h, dosage 20 g/ha, read-out: Post-emergence action against POLCO in %
  pest or weed control at 20 g/ha: 100%
[9]; Ipomoea purpurea, 504 h, dosage 1.25 g/ha, read-out: Post-emergence action against PHBPU in %
  pest or weed control at 1.25 g/ha: 100%
[9]; Ipomoea purpurea, 504 h, dosage 5 g/ha, read-out: Post-emergence action against PHBPU in %
  pest or weed control at 5 g/ha: 100%
[9]; Ipomoea purpurea, 504 h, dosage 20 g/ha, read-out: Post-emergence action against PHBPU in %
  pest or weed control at 20 g/ha: 100%
[10]; Abutilon theophrasti, 504 h, 5 g/ha, read-out: Post-emergence action at 5 g/ha against ABUTH in %
  pest or weed control at 5 g/ha: 100%
[10]; Abutilon theophrasti, 504 h, 20 g/ha, read-out: Post-emergence action at 20 g/ha against ABUTH in %
  pest or weed control at 20 g/ha: 100%
[11]; 1.25 g/ha
  Post-emergence action against STEME: 80%
[11]; 5 g/ha
  Post-emergence action against STEME: 100%
[11]; 20 g/ha
  Post-emergence action against STEME: 100%
[12]; Amaranthus retroflexus, 504 h, 1.25 g/ha, read-out: Post-emergence action at 1.25 g/ha against AMARE in %
  pest or weed control at 1.25 g/ha: 100%
[12]; Amaranthus retroflexus, 504 h, 20 g/ha, read-out: Post-emergence action at 20 g/ha against AMARE in %
  pest or weed control at 20 g/ha: 100%
[13]; 1.25 g/ha
  Post-emergence action against TRZAS (crop plant compatibility): 20%
[13]; 5 g/ha
  Post-emergence action against TRZAS (crop plant compatibility): 20%
[14]; 1.25 g/ha
  Post-emergence action against ZEAMX (crop plant compatibility): 10%
[14]; 5 g/ha
  Post-emergence action against ZEAMX (crop plant compatibility): 10%
[14]; 20 g/ha
  Post-emergence action against ZEAMX (crop plant compatibility): 20%
[15]; 1.25 g/ha
  Post-emergence action against GLXMA in %: 0%
[15]; 5 g/ha
  Post-emergence action against GLXMA in %: 10%
[15]; 20 g/ha
  Post-emergence action against GLXMA in %: 20%

## Cn1c(C(F)(F)F)cc(=O)n(-c2cc(Oc3ccccc3OCC(=O)OCc3ccccn3)c(C#N)cc2F)c1=O [I.9-276]
[1]; dosage 5 g/ha
  Post-emergence action against ECHCG in %: 100%
[1]; dosage 20 g/ha
  Post-emergence action against ECHCG in %: 100%
[2]; 20 g/ha
  Post-emergence action against SETVI: 100%
[2]; dosage 1.25 g/ha
  Post-emergence action against SETVI in %: 100%
[2]; dosage 5 g/ha
  Post-emergence action against SETVI in %: 100%
[3]; dosage 5 g/ha
  Post-emergence action against MATIN in %: 100%
[3]; dosage 20 g/ha
  Post-emergence action against MATIN in %: 100%
[4]; 5 g/ha
  Post-emergence action at 5 g/ha against ALOMY in %: 100%
[4]; 20 g/ha
  Post-emergence action at 20 g/ha against ALOMY in %: 100%
[5]; 1.25 g/ha
  Post-emergence action against ORYSA (crop plant compatibility): 0%
[5]; 5 g/ha
  Post-emergence action against ORYSA (crop plant compatibility): 0%
[5]; 20 g/ha, crop plant compatibility
  Post-emergence action against ORYSA in %: 0%
[6]; 1.25 g/ha
  Post-emergence action against VERPE: 80%
[6]; 5 g/ha
  Post-emergence action against VERPE: 100%
[6]; 20 g/ha
  Post-emergence action against VERPE: 100%
[7]; 1.25 g/ha
  Post-emergence action against VIOTR: 100%
[7]; 5 g/ha
  Post-emergence action against VIOTR: 100%
[7]; 20 g/ha
  Post-emergence action against VIOTR: 100%
[8]; dosage 20 g/ha
  Post-emergence action against POLCO in %: 100%
[9]; dosage 1.25 g/ha
  Post-emergence action against PHBPU in %: 100%
[9]; dosage 5 g/ha
  Post-emergence action against PHBPU in %: 100%
[9]; dosage 20 g/ha
  Post-emergence action against PHBPU in %: 100%
[10]; 1.25 g/ha
  Post-emergence action at 1.25 g/ha against ABUTH in %: 100%
[10]; 5 g/ha
  Post-emergence action at 5 g/ha against ABUTH in %: 100%
[10]; 20 g/ha
  Post-emergence action at 20 g/ha against ABUTH in %: 100%
[16]; 5 g/ha
  Post-emergence action at 5 g/ha against AVEFA in %: 80%
[16]; 20 g/ha
  Post-emergence action at 20 g/ha against AVEFA in %: 90%
[12]; 1.25 g/ha
  Post-emergence action at 1.25 g/ha against AMARE in %: 100%
[12]; 5 g/ha
  Post-emergence action at 5 g/ha against AMARE in %: 100%
[12]; 20 g/ha
  Post-emergence action at 20 g/ha against AMARE in %: 100%
[13]; 1.25 g/ha
  Post-emergence action against TRZAS (crop plant compatibility): 0%
[14]; 1.25 g/ha
  Post-emergence action against ZEAMX (crop plant compatibility): 0%
[14]; 5 g/ha
  Post-emergence action against ZEAMX (crop plant compatibility): 0%
[14]; 20 g/ha
  Post-emergence action against ZEAMX (crop plant compatibility): 20%
[15]; 1.25 g/ha
  Post-emergence action against GLXMA in %: 0%
